In patent publication US20250228824A1, “COMPOSITIONS AND METHODS FOR INHIBITION OF ITO AS TREATMENT FOR THE J WAVE SYNDROMES AND HYPOTHERMIA” (Lankenau Institute for Medical Research, priority 2021, published 2025):

Experiments:
Format in all cases: cell-based
[1] = molecular target: T1, KV4.3 (Ito) (Canis lupus familiaris, UniProt A0A8I3NA05); assay: Whole-cell patch clamp of Ito in dissociated canine ventricular epicardial myocytes
T1 sequence (A0A8I3NA05 1-655): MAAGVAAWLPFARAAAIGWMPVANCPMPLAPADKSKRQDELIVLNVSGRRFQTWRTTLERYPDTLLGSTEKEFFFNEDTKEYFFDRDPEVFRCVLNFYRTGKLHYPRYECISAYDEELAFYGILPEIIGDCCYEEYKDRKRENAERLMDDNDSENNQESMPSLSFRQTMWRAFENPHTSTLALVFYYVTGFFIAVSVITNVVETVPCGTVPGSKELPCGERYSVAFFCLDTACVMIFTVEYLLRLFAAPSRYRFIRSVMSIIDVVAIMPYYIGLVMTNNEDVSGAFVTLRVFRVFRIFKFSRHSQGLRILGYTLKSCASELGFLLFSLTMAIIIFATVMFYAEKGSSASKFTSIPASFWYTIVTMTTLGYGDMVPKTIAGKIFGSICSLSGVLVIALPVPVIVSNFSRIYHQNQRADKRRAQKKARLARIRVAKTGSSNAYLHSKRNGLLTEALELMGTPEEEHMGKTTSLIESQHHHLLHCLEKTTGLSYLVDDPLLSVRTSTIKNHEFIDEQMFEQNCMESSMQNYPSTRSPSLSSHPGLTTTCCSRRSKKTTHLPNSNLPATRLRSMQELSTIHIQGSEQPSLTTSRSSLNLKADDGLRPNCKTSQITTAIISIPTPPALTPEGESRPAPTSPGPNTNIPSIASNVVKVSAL
Procedure: (§1) Single myocytes were isolated from coronary-perfused canine right or left ventricular wedge preparations via enzymatic dissociation. Briefly, the wedge preparations were coronary perfused with nominally Ca^+2-free Tyrode's solution for a period of 15 min. They were then subjected to enzymatic digestion in nominally Ca^2+-free solution supplemented with 0.6 mg/ml collagenase (type II; Worthington) and 0.075 mg/ml protease (type XIV; Sigma) for 25-35 min. The wedge preparation was then perfused for 15 min with a taurine buffer solution containing (in mM): 108 NaCl, 10 HEPES, 11 D-glucose, 4 KCl, 1.2 MgSO4, 1.2 NaH2PO4, 50 taurine and 0.025 CaCl2. pH was adjusted to 7.4 using NaOH. After perfusion, thin slices of tissue were cut from the epicardial surface to obtain single epicardial cells as previously described.^6
(§2) Ito and APs were measured in isolated RV or LV myocytes. APs were measured in the current-clamp mode in the whole-cell configuration. APs were initiated using intracellular current injection and recorded continuously by means of Clampex software (Axon Instruments/Molecular Devices) at a sampling frequency of […]. Ito was measured using the Axopatch 200B-2 amplifier in V-Clamp mode.
Ito was recorded in isolated ventricular epicardial cells at 37° C. using whole-cell patch clamp techniques. Ito was elicited using a series of 350 ms voltage steps between −50 mV and +40 mV from a holding potential of −90 mV. A 15 ms prepulse to −20 mV was used to discharge the sodium current. Interpulse interval was 50 ms. The amplitude of Ito was determined by subtracting […] at the end of the pulse. The total charge carried by Ito was determined by calculating the area under the Ito current waveform. The extracellular solution contained (in mM): 140 NaCl, 4 KCl, 1.8 CaCl2, 1.2 MgCl2, 10 HEPES, and 10 glucose, pH 7.4 (adjusted with NaOH). The intracellular solution contained (in mM): 120 KCl, 1.5 MgCl2, 10 HEPES, 0.5 EGTA, 0.01 CaCl2, 5 MgATP, pH 7.2 (adjusted with NaOH). Following baseline measurements, recordings was repeated during exposure to AR-787.

[2] = system: canine right ventricular epicardial myocytes; assay: Action potential recording (current clamp) in canine RV epicardial myocytes; conditions: 10 μM
Procedure: as §1, §2

[3] = system: CaV1.2 (ICa); assay: Whole-cell patch clamp of ICa in canine ventricular myocytes; conditions: 10 μM; at 0 mV; control −5.13+0.77; shift not statistically significant
Procedure: as §1
ICa was measured in canine ventricular myocytes at 37° C. ICa was elicited by application of 300 ms steps from −50 to +40 mV. Extended protocols were avoided to prevent current rundown. Internal solution contained (in mM): 120 CsCl, 1 MgCl2, 10 EGTA, 5 Mg-ATP, 10 HEPES, 5 CaCl2. pH was adjusted to 7.2 with CsOH. External solution contained (in mM): 140 NaCl, 10 HEPES, 10 D-glucose, 4 KCl, 1 MgCl2, 2 CaCl2, 2 4-AP and 0.1 BaCl2.

inhibition at 1 µM ([1]; 1 μM, at +20 mV, 37° C., read-out: reduction of Ito density): 34% | inhibition at 10 µM ([1]; 10 μM, at +20 mV, 37° C., read-out: reduction of Ito density): 68% | inhibition at 50 µM ([1]; 50 μM, at +20 mV, 37° C., read-out: reduction of Ito density): 85.2% | IC50 ([1]; estimated, read-out: IC50 for Ito inhibition): ~8 µM
SMILES: Cc1nc(-n2cccc2)sc1C(=O)N=c1[nH]c2ccccc2[nH]1 [AR-787, N-(1H-benzimidazol-2-yl)-4-methyl-2-pyrrol-1-yl-thiazole-5-carboxamide]
Action potential duration (APD) [2]: tendency to abbreviate but this effect was not statistically significant | effect on AP notch ([2]; 0.5 Hz): significantly suppressed the AP notch | ICa peak density [3]: −6.95+1.88 pA/pF
